Laboratory results taken from patent US7056892B2, “Glucopyranosyloxypyrazole derivatives, medicinal compositions containing the same and intermediates in the production thereof” (Kissei Pharmaceutical Co., Ltd., priority 1999, dated 2006).

Columns and labels:
[1] = tested on: ICR mice; assay: Acute toxicity test, Method B (subcutaneous); format: in vivo; details: 600 mg/kg subcutaneous, male ICR mice, 5 animals, observation until 24 hours
Procedure: By adding of the solvent (saline:polyethylene glycol 400:ethanol=5:4:1) to the test compound, 200 mg/mL suspension was prepared. As experimental animal, male 5 weeks of age ICR mice fasted for 4 hours (Clea Japan, 26–33 g, 5 animals in each group) were used. The test suspension described above was subcutaneously administrated to the experimental animals described above at the dose of 3 mL/kg (600 mg/kg) and then observation was performed until 24 hours after the administration.

[2] = tested on: SD rats; assay: Assay for the facilitatory effect on urinary glucose excretion, Method B (intravenous); format: in vivo, rat; details: oral glucose 2 g/kg, 24 hours, per 200 g of body weight
Procedure: (§1) Assay for the Facilitatory Effect on Urinary Glucose Excretion
As experimental animal, overnight fasted SD rats (SLC, male, 7 weeks of age, 180–220 g) were used. A test compound (10 mg) was suspended or dissolved in 300 μL of ethanol and dissolved by adding of 1.2 mL of polyethylene glycol 400 and 1.5 mL of saline and then 3.3 mg/mL solution was prepared. A part of this solution was diluted with the solvent (saline:polyethylene glycol 400:ethanol=5:4:1) and then each solution at the concentration of 3.3, 0.33 or 0.033 (mg/mL) was prepared. After the body weights of the rats were measured, the test compound solution was administrated by intravenous injection to the tail vein at the dose of 3 mL/kg (10, 1 and 0.1 mg/kg). For the control, just only the solvent (saline:polyethylene glycol 400:ethanol=5:4:1) was administrated by intravenous injection to the tail vein at the dose of 3 mL/kg. Immediately after this intravenous administration, 200 g/L glucose solution was orally administered at the dose of 10 mL/kg (2 g/kg). The intravenous administration was performed with 26G needle and 1 mL syringe. The oral administration was performed with gastric tube for rat and 2.5 mL syringe. The head count in one group was 3. Collection of urine was performed in metabolic cage after the glucose administration was finished. The sampling time for collection of urine was 24 hours after the glucose administration. After collection of urine was finished, the urine volume was recorded and the urinary glucose concentration was measured. The glucose concentration was measured with a kit for laboratory test: Glucose B-Test WAKO (Wako Pure Chemical Industries, Ltd.). The amount of urinary glucose excretion in 24 hours per 200 g of body weight was calculated from urine volume, urinary glucose concentration and body weight.

[3] = tested on: ICR mice; assay: Acute toxicity test, Method A (oral); format: in vivo; details: 1000 mg/kg oral, male ICR mice, 5 animals, observation until 24 hours
Procedure: By adding of 0.5% sodium carboxymethylcellulose solution to the test compound, 100 mg/mL suspension was prepared. As experimental animal, male 6–7 weeks of age ICR mice fasted for 4 hours (Clea Japan, 28–33 g, 5 animals in each group) were used. The test suspension described above was orally administrated to the experimental animals described above at the dose of 10 mL/kg (1000 mg/kg) and then observation was performed until 24 hours after the administration.

[4] = tested on: SD rats; assay: Assay for the facilitatory effect on urinary glucose excretion, Method A (subcutaneous); format: in vivo, rat; details: oral glucose 2 g/kg, 4 hours, per 1 body
Procedure: as §1
As experimental animal, overnight fasted SD rats (SLC, male, 5 weeks of age, 120–150 g) were used. Test compound (25.40 mg) was suspended in 762 μL of ethanol and dissolved by adding of 3.048 mL of polyethylene glycol 400 and 3.81 mL of saline and then 3.3 mg/mL solution was prepared. A part of this solution was diluted with the solvent (saline:polyethylene glycol 400:ethanol=5:4:1) and then each solution at the concentration of 3.3, 1 or 0.33 (mg/mL) was prepared. Each of these solutions was subcutaneously administrated to the rats at the dose of 3 mL/kg (10, 3 and 1 mg/kg). For the control, just only the solvent (saline:polyethylene glycol 400:ethanol=5:4:1) was subcutaneously administrated at the dose of 3 mL/kg. Immediately after this subcutaneous administration, 200 g/L glucose solution was orally administered at the dose of 10 mL/kg (2 g/kg). The subcutaneous administration was performed with 26G needle and 1 mL syringe. The oral administration was performed with gastric tube for rat and 2.5 mL syringe. The head count in one group was 3. Collection of urine was performed in metabolic cage after these administrations were finished. The sampling time for collection of urine was 4 hours after the glucose administration. After collection of urine was finished, the urine volume was recorded and the urinary glucose concentration was measured. The glucose concentration was measured with a kit for laboratory test: Glucose B-Test WAKO (Wako Pure Chemical Industries, Ltd.). The amount of urinary glucose excretion in 4 hours per 1 body was calculated from urine volume and urinary glucose concentration.

[5] = target: T1, human SGLT2 (Homo sapiens, UniProt P31639, I433V); assay: Assay for inhibitory effect on human SGLT2 activity (uptake of methyl-α-D-glucopyranoside in COS-7 cells expressing transiently human SGLT2); format: cell-based
T1 construct: expressed in transfected cells; host or cells: COS-7 cells (RIKEN CELL BANK RCB0539), transient electroporation of plasmid KL29
T1 sequence (P31639 1-672 I433V): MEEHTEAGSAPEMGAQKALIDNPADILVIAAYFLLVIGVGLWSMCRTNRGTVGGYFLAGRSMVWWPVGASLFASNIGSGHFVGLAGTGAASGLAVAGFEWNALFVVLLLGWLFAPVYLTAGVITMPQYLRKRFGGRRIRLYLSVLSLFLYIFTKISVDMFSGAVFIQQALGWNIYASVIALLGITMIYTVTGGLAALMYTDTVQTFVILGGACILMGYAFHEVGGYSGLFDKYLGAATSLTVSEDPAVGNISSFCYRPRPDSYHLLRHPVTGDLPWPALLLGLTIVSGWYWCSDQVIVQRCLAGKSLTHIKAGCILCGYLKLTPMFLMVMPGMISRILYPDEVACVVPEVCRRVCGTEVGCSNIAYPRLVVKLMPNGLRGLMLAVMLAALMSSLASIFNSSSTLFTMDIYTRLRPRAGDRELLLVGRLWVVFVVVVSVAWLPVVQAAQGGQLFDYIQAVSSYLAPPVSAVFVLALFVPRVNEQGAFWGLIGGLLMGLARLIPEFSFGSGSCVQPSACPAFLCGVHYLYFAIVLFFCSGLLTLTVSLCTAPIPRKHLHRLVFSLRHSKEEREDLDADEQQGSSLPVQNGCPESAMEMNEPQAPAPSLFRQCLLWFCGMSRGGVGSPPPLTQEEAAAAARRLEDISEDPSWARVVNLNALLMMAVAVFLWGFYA
Procedure: Assay for Inhibitory Effect on Human SGLT2 Activity
1) Construction of the Plasmid Vector Expressing Human SGLT2
Preparation of the cDNA library for PCR amplification was performed by reverse transcription of a total RNA deprived from human kidney (Ori gene) with oligo dT as the primer, using Super Script preamplification system (Gibco-BRL: LIFE TECHNOLOGIES). The DNA fragment coding for human SGLT2 was amplified by the PCR reaction, in which the human kidney cDNA library described above was used as the template and the following oligo nucleotides 0702F and 0712R, presented as sequence number 1 and 2 respectively, were used as the primers. The amplified DNA fragment was ligated into pCR (Invitrogen), a vector for cloning, according to standard method of the kit. The Escherichia coli HB101 was transformed according to usual method and then selection of the transformants was performed on the LB agar medium containing 50 μg/mL of kanamycin. […] After plasmid DNA was extracted and purified from this transformant, the base sequence of the DNA fragment inserted at the multi-cloning sites of the vector pcDNA3.1 (−) Myc/His-B was analyzed. […]

[6] = tested on: normal mice; details: J. Med. Chem., Vol. 39, pp. 3920–3928 (1996); cited from earlier work

| SMILES | Death number [1] | Amount of Urinary Glucose Excretion ([2]; 0.1 mg/kg intravenous) [mg] | Amount of Urinary Glucose Excretion ([2]; 1 mg/kg intravenous) [mg] | Amount of Urinary Glucose Excretion ([2]; 10 mg/kg intravenous) [mg] | Death number [3] | Amount of Urinary Glucose Excretion ([4]; 1 mg/kg subcutaneous) [mg] | Amount of Urinary Glucose Excretion ([4]; 3 mg/kg subcutaneous) [mg] | Amount of Urinary Glucose Excretion ([4]; 10 mg/kg subcutaneous) [mg] | IC50 ([5]; COS-7 cells expressing transiently human SGLT2, uptake of methyl-α-D-(U-14C)glucopyranoside, 37° C., 2 hours) [µM] | inhibitory activity in human SGLT2 (in words) ([5]; assay for inhibitory effect on human SGLT2 activity) | amount of excreted glucose [6] |
| --- | --- | --- | --- | --- | --- | --- | --- | --- | --- | --- | --- |
| Cc1[nH]nc(O[C@@H]2O[C@H](CO)[C@@H](O)[C@H](O)[C@H]2O)c1Cc1ccc(OC(C)C)cc1 [Example 35, 3-(β-D-Glucopyranosyloxy)-4-[(4-isopropoxyphenyl)methyl]-5-methyl-1H-pyrazole] | 0/5 | 16 | 74 | 188 | – | – | – | – | – | – | – |
| Cc1[nH]nc(O[C@@H]2O[C@H](CO)[C@@H](O)[C@H](O)[C@H]2O)c1Cc1ccc(C(C)C)cc1 [Example 45, 3-(β-D-Glucopyranosyloxy)-4-[(4-isopropylphenyl)methyl]-5-methyl-1H-pyrazole] | – | 2 | 45 | 132 | 0/5 | 22.1 | 83.2 | 153.3 | – | – | – |
| CSc1ccc(Cc2c(C(F)(F)F)[nH][nH]c2=O)cc1 [WAY-123783] | – | – | – | – | – | – | – | – | > 100 | extremely weak inhibitory activity | increased |
